Assay results reported in patent US20110144014A1, “CYTOKINE RECEPTOR MODULATORS AND USES THEREOF” (CENTRE HOSPITALIER UNIVERSITAIRE SAINTE-JUSTINE, priority 2005, published 2011).
Like-named read-outs stand apart in the source and are kept apart here. Blank lines part the entries; values can stand above or below the molecule they belong to. Where a SMILES comes first, the peptide text is derived from it. Where no end group is shown, it is not given here. [ ]: non-standard residue; d: D form. dOrn = NCCC[C@@H](N)C(=O)O; Orn = NCCC[C@H](N)C(=O)O

Tests used:
IL-1R/IL-1RacP = target: T1, IL-1R/IL-1RacP (Homo sapiens, UniProt P14778+Q9NPH3); experiment: IL-1β-induced proliferation in TF-1 cells; assay type: cell-based; conditions: for activity relative to 101.113: Table 11
T1 construct: TF-1 cells; endogenous in cells; host or cells: TF-1
T1 sequence (P14778 18-569): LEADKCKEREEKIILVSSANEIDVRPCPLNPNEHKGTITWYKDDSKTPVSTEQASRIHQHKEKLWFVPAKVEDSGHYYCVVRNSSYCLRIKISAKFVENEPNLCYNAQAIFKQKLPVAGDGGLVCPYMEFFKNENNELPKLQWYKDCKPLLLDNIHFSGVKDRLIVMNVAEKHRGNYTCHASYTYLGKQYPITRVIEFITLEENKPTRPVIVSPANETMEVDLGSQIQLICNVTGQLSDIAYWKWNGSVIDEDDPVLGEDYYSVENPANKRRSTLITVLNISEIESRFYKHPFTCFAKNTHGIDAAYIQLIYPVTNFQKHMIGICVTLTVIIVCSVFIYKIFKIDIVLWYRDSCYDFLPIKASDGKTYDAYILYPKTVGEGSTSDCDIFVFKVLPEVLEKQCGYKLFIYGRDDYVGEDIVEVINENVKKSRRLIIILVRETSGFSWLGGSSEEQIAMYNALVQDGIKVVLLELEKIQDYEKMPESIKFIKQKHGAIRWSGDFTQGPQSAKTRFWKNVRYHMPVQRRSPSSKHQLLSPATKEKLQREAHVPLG
T1 sequence (Q9NPH3 21-570): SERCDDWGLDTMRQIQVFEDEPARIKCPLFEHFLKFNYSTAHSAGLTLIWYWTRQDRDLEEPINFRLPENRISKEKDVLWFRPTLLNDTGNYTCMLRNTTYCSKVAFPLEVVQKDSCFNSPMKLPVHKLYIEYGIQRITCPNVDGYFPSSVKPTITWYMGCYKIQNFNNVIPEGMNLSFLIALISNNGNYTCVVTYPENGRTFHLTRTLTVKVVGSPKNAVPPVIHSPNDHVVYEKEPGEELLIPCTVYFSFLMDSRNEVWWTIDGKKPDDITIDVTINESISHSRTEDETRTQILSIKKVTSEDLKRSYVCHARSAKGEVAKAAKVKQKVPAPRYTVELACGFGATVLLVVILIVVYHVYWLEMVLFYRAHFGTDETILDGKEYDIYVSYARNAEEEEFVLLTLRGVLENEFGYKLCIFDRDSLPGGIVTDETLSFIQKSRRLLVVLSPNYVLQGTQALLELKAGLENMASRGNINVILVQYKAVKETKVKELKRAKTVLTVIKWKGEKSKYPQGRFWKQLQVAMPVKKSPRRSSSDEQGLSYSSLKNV

[1] = tested on: TNBS-induced colon inflammation; experiment: TNBS rat model of inflammatory bowel disease; assay type: in vivo
Procedure: Colon inflammation was induced by intra-rectal/colon administration of the hapten trinitrobenzene sulphonic acid (TNBS) on male Sprague-Dawley rats (175-200 g) (Bouma, Nature Rev, 2003; Morris, Gastroenterology, 1989). Animals were anesthetized with isoflurane and TNBS dissolved in 50% ethanol (vol/vol). 120 mg/ml (TNBS) was administered into the colon (total volume of 0.25 ml per rat) using a polyethylene tube (PE50). The cannula was inserted at 8 cm from the anus and kept in place for at least 15 minutes after TNBS administration in order to prevent expulsion of the solution. Two hours prior to TNBS administration, the API-101 derivative API-101.10 (1.1 mg/kg) or 0.9% saline was administered intravenously via the caudal vein (total volume of 0.3 ml). […] A third group (control) was not injected with TNBS. Six days after administration of TNBS, rats were killed by CO2 inhalation. Day 6 was chosen as an endpoint because by day 7 spontaneous tissue regeneration begins and this can mask the therapeutic effect of the tested peptide or peptide derivative. Colon was removed and examined macroscopically (adhesions, ulcerations, discoloration and bleeding) and histologically (neutrophil infiltration, epithelial injury, crypt distortion and ulcerations) (Anthony et al., Int. J. Exp. Path. 76:215-224, 1995; Padol et al., Eur. J. of Gastroenterol. Hepatol. 12:257-265, 2000; Dieleman et al., […], 1997; Torres et al., Digestive Diseases and Sciences 44:2523-2529, 1999). Two animals per group were studied.
Histological transversal sections were cut at 4-6 cm from the proximal anal region and colored with the hematoxylin/eosin method. The TNBS model of inflammatory bowel disease reproduces the inflammatory characteristics and tissue injuries of Crohn's disease (e.g., in humans). Morphologically, the colon of the animals injected with TNBS presented thickening, edema, and discoloration of the intestinal wall indicating a significant inflammation. […] Histological features consisted of neutrophil infiltration into the epithelial layer and crypts, epithelial lining injury as well as the loss of crypts. […] The organization and integrity of the crypts in the API-101.10-treated colon is conserved even if there is still some inflammation (half the dose of API-101.10 was used as compared to the macroscopic analysis experiment).
Colon inflammation was induced by intra-rectal/colon administration of the hapten trinitrobenzene sulphonic acid (TNBS) as described above. Two hours prior to TNBS administration, peptides, peptidomimetics or 0.9% saline were administered intravenously (iv) via the caudal vein (various concentrations of mg/kg/d) (total volume of 0.3 ml). […] A third group (control) was not injected with TNBS. For intermittent administration, fifteen minutes after TNBS administration, 101.10 (0.25-1 mg/kg), 101.107 (0.2 mg/kg), 101.113 (0.05-1 mg/kg) were administered by intermittent intraperitoneal injection (ip). Also, these IL-1R antagonists were given twice a day (BID); Remicade® (anti-TNFα) (10 mg/kg) and dexamethasone (0.75 mg/kg) were administered intraperitoneally but only once a day (qd). The intrarectal administration (ir) of 101.10, 101.113 (1 and 2.5 mg/kg), and 5-ASA (50 mg/kg) was done one hour after TNBS administration, and twice a day, except for 5-ASA which is once a day. Finally, 101.10 (1-5 mg/kg) was also administered orally by gavage (po), twice a day. Forty-eight hours after administration of TNBS, rats were killed by CO2 inhalation. The colon was removed and assessed macroscopically (adhesions, ulcerations, discoloration and bleeding) and histologically (neutrophil infiltration, epithelial injury, crypt distortion and ulcerations). One to seven animals per group were studied, according to treatments. Myeloperoxidase (MPO) activity was measured on tissue lysates.

IGF-1R = IGF-1R (Homo sapiens, UniProt P08069); experiment: IGF-1 induced proliferation of MCF-7 breast carcinoma cells (3H-thymidine); assay type: cell-based; set-up: MCF-7 breast carcinoma cells; endogenous in cells; host or cells: MCF-7; conditions: MCF7; MCF-7 (breast cancer) cells; Table 5; read-out: Emax
Procedure: We also tested the effect IGF-1R antagonist peptides on IGF-1 induced proliferation in other cancer cell types (MCF-7 breast carcinoma cells, HepG2 hepatocarcinoma cells, and MDA-MB-231 breast adenocarcinoma cells). Different cancer cells were pre-incubated (45 min.) with different concentrations of peptides prior to stimulation with IGF-1 (50 ng/ml) (37° C.) for 24 hours; fetal calf serum was omitted 24 hours prior to stimulation with IGF-1 to avoid proliferative effects by other mitotic agents. ^3H-thymidine (1 μCi/ml) was then added for 24 hours, after which cells were washed three times with 5% cold TCA and lysed with 0.1N NaOH/0.1% Triton X-100. Radioactivity was measured with a scintillation counter. Experiments were repeated 3 times in duplicates (FIG. 15). […]

[2] = TF-1, IL-1β-induced, Table 10, read-out: Emax (%), proliferation in TF-1 cells (human)
[3] = TF-1, Table 11, read-out: Emax (%), IL-1β-induced TF-1 proliferation
[4] = intermittent injection (ip), 0.75-qd mg/kg/d
[5] = intrarectal administration, 50.0-qd mg/kg/d
[6] = continuous infusion (ip), 8.0 mg/kg/d
[7] = intermittent injection (ip), 10.0-qd mg/kg/d

Chain of IGF-1R (P08069 31-736 limits assumed): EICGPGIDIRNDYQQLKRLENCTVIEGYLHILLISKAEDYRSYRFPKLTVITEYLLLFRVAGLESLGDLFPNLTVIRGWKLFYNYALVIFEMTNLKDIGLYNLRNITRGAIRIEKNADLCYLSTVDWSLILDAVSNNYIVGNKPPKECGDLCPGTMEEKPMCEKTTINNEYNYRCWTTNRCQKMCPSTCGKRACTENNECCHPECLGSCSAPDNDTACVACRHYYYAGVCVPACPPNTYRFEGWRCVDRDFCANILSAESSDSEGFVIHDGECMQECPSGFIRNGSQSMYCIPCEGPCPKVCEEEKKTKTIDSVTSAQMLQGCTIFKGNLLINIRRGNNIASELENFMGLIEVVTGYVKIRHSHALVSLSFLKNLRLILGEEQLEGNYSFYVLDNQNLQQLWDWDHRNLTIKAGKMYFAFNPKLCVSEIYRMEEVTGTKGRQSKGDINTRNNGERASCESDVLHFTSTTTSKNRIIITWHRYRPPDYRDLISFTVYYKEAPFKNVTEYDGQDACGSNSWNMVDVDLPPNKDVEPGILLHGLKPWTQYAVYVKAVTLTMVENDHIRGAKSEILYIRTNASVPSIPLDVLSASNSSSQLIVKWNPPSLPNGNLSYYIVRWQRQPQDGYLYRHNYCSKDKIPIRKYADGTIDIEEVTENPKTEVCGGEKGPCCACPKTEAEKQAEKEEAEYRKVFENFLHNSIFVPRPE
Chain of IGF-1R (P08069 741-1367 limits assumed): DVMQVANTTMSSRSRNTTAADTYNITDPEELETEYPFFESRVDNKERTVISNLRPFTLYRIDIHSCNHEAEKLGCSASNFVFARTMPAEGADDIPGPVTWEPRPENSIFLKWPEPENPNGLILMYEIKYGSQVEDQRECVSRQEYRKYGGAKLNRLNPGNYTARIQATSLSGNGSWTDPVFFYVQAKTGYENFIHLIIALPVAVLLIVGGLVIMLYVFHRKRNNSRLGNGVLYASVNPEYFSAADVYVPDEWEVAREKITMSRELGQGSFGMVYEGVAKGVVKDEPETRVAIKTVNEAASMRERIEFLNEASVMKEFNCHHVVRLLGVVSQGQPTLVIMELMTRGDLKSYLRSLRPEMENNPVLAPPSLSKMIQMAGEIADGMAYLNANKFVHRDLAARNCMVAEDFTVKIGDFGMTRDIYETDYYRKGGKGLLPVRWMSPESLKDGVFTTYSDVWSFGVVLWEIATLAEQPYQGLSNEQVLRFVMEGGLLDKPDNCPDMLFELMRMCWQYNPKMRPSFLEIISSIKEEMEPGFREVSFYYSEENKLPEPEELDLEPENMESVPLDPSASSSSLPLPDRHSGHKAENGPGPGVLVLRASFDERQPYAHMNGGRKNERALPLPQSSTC

Emax (IL-1R/IL-1RacP; [2]): 100%
Molecule: CC(C)C[C@@H](NC(=O)[C@@H](CCC(=O)O)NC(=O)[C@H]1CCCN1C(=O)[C@H](NC(=O)[C@@H](Cc1ccc(O)cc1)NC(=O)[C@H](N)CCCNC(=N)N)[C@H](C)O)C(=O)O [API-101.113, RYTPEL]

Emax (IL-1R/IL-1RacP; [2]): 100%
Molecule: CC(C)C[C@@H](NC(=O)[C@@H](CCC(=O)O)NC(=O)[C@H]1CCCN1C(=O)[C@H](NC(=O)[C@@H](Cc1ccc(O)cc1)NC(=O)[C@H](N)CCCN)[C@H](C)O)C(=O)N[C@H](C)C(=O)O [API-101.115, XYTPELA (X = Ornithine)] (H-[dOrn][dY][dT][dP][dE][dL][dA]-OH)

Emax (IL-1R/IL-1RacP; [2]): 75%
Molecule: CC(C)C[C@@H](NC(=O)[C@@H](CCC(=O)O)NC(=O)[C@H]1CCCN1C(=O)[C@H](NC(=O)[C@@H](Cc1c[nH]c2ccccc12)NC(=O)[C@H](N)CCCNC(=N)N)[C@H](C)O)C(=O)N[C@H](C)C(=O)O [API-101.116, RWTPELA]

Emax (IL-1R/IL-1RacP; [3]): 100% | activity relative to 101.113 (IL-1R/IL-1RacP): relatively decreased
Molecule: CC(C)C[C@@H](NC(=O)[C@@H](CCC(=O)O)NC(=O)[C@H]1CCCN1C(=O)[C@H](NC(=O)[C@@H](Cc1c[nH]c2ccccc12)NC(=O)[C@H](N)CCCNC(=N)N)[C@H](C)O)C(=O)O [API-101.128, RWTPEL] (H-[dR][dW][dT][dP][dE][dL]-OH; N-terminus and C-terminus assumed)

Emax (IL-1R/IL-1RacP; [3]): 63%
Molecule: CC(C)C[C@@H](NC(=O)[C@@H](CCC(=O)O)NC(=O)[C@H]1CCCN1C(=O)[C@H](NC(=O)[C@@H](Cc1ccc(O)cc1)NC(=O)[C@@H](N)CCCNC(=N)N)[C@H](C)O)C(=O)O [API-101.135, *RYTPEL]

Continued, molecule first:

Molecule: CC(C)C[C@H](NC(=O)[C@H](CCC(=O)O)NC(=O)[C@@H]1CCCN1C(=O)[C@@H](NC(=O)[C@H](Cc1ccc(O)cc1)NC(=O)[C@@H](N)CCCN)[C@@H](C)O)C(=O)O [API-101.126, XYTPEL (X = Ornithine)] (H-[Orn]YTPEL-OH)
Emax (IL-1R/IL-1RacP; [3]): 0%

Molecule: CC(C)C[C@@H](NC(=O)[C@@H](CCC(=O)O)NC(=O)[C@H]1CCCN1C(=O)[C@H](NC(=O)[C@@H](Cc1ccccc1)NC(=O)[C@H](N)CCCNC(=N)N)[C@H](C)O)C(=O)O [API-101.132, RFTPEL] (H-[dR][dF][dT][dP][dE][dL]-OH; N-terminus and C-terminus assumed)
Emax (IL-1R/IL-1RacP; [3]): 35% | activity relative to 101.113 (IL-1R/IL-1RacP): relatively decreased

Molecule: CC(C)C[C@@H](NC(=O)[C@@H](CCC(=O)O)NC(=O)[C@H]1CCCN1C(=O)[C@H](NC(=O)[C@@H](Cc1ccc(O)cc1)NC(=O)[C@H](N)CCCNC(N)=O)[C@H](C)O)C(=O)O [API-101.134, XYTPEL (X = Citrulline)]
Emax (IL-1R/IL-1RacP; [3]): 10% | activity relative to 101.113 (IL-1R/IL-1RacP): little or no activity

Molecule: C[C@@H]1C[C@H]2[C@@H]3CCC4=CC(=O)C=C[C@]4(C)[C@@]3(F)[C@@H](O)C[C@]2(C)[C@@]1(O)C(=O)CO [Dexamethasone, dexamethasone, reference compound]
Histologic evaluation (median score) [1, 4]: 3 (Medium ulcer (5-10 crypts)) | MPO (% of TNBS + Saline) [1, 4]: 60 % of TNBS + Saline | Macroscopic evaluation (median score) [1, 4]: 0.87 median score

Molecule: Nc1ccc(O)c(C(=O)O)c1 [Peptide 5-ASA, 5-ASA, reference compound]
Histologic evaluation (median score) [1, 5]: 3.3 median score | MPO (% of TNBS + Saline) [1, 5]: 49 % of TNBS + Saline | Macroscopic evaluation (median score) [1, 5]: 1.5 median score

Molecule: KYTPEL [API-101.133, KYTPEL]
Emax (IL-1R/IL-1RacP; [3]): < 10%

Molecule: Kineret: Amgen drug, a selective blocker of IL-1; commercial analog of IL-1R antagonist (IL-Ra) [reference compound]
Histologic evaluation (median score) [1, 6]: 2 (Small ulcer (<5 crypts)) | MPO (% of TNBS + Saline) [1, 6]: 63 % of TNBS + Saline

Molecule: RFVPELA [API-101.127, RFVPELA]
Emax (IL-1R/IL-1RacP; [3]): < 30%

Molecule: RTVLSNL [APG-206.8, RTVLSNL]
Emax (IGF-1R): 100%

Molecule: Remicade ®: anti-TNFα [reference compound]
Histologic evaluation (median score) [1, 7]: 2.5 median score | MPO (% of TNBS + Saline) [1, 7]: 88 ± 41 % of TNBS + Saline | Macroscopic evaluation (median score) [1, 7]: 0.5 median score
